≈ marks a conversion by molar mass, not a printed value.
Experiments:
Aspergillus fumigatus [1] = test: Antimicrobial activity against itraconazole-resistant Aspergillus fumigatus clinical isolate expressing cyp51A G54W mutant gene by CLSI method; assay type: functional
Aspergillus fumigatus [2] = test: Antimicrobial activity against itraconazole-resistant Aspergillus fumigatus clinical isolate expressing cyp51A G138C mutant gene by CLSI method; assay type: functional
Aspergillus fumigatus [3] = test: Antimicrobial activity against itraconazole-resistant Aspergillus fumigatus clinical isolate expressing cyp51A M220R mutant gene by CLSI method; assay type: functional
Aspergillus fumigatus [4] = test: Antimicrobial activity against itraconazole-resistant Aspergillus fumigatus clinical isolate expressing cyp51A M220I mutant gene by CLSI method; assay type: functional
Aspergillus fumigatus [5] = test: Antimicrobial activity against itraconazole-resistant Aspergillus fumigatus clinical isolate expressing cyp51A M220V mutant gene by CLSI method; assay type: functional
Aspergillus fumigatus [6] = test: Antimicrobial activity against itraconazole-resistant Aspergillus fumigatus clinical isolate expressing cyp51A M220K mutant gene by CLSI method; assay type: functional
Aspergillus fumigatus [7] = test: Antimicrobial activity against itraconazole-resistant Aspergillus fumigatus clinical isolate expressing cyp51A F46Y, G89G, M172V, N248T, D255E, L358L, E427K and C454C mutant gene by CLSI method; assay type: functional
Aspergillus fumigatus [8] = test: Antimicrobial activity against itraconazole-resistant Aspergillus fumigatus clinical isolate expressing cyp51A L98H, S297T, F495 mutant gene by CLSI method; assay type: functional
Aspergillus fumigatus [9] = test: Antimicrobial activity against itraconazole-resistant Aspergillus fumigatus clinical isolate expressing cyp51A L98H, F495I mutant gene by CLSI method; assay type: functional
Aspergillus fumigatus [10] = test: Antimicrobial activity against itraconazole-resistant Aspergillus fumigatus clinical isolate expressing cyp51A L98H, Q88H mutant gene and by CLSI method; assay type: functional
Aspergillus fumigatus [11] = test: Antimicrobial activity against itraconazole-resistant Aspergillus fumigatus clinical isolate expressing cyp51A L98H, N125I mutant gene by CLSI method; assay type: functional
Aspergillus fumigatus [12] = test: Antimicrobial activity against itraconazole-resistant Aspergillus fumigatus clinical isolate expressing cyp51A L98H, A284A mutant gene by CLSI method; assay type: functional
Aspergillus fumigatus [13] = test: Antimicrobial activity against itraconazole-resistant Aspergillus fumigatus clinical isolate expressing cyp51A L98H, L339L mutant gene by CLSI method; assay type: functional
Aspergillus fumigatus [14] = test: Antimicrobial activity against itraconazole-resistant Aspergillus fumigatus clinical isolate expressing cyp51A L98H mutant gene by CLSI method; assay type: functional
Aspergillus fumigatus [15] = test: Antimicrobial activity against itraconazole-resistant Aspergillus fumigatus clinical isolate expressing wild type cyp51A gene by CLSI method; assay type: functional
Aspergillus fumigatus [16] = test: Antimicrobial activity against itraconazole-susceptible Aspergillus fumigatus clinical isolate expressing cyp51A F46Y, G89G mutant gene by CLSI method; assay type: functional
Aspergillus fumigatus [17] = test: Antimicrobial activity against itraconazole-susceptible Aspergillus fumigatus clinical isolate expressing cyp51A F46Y, G89G, E427K, C454C mutant gene by CLSI method; assay type: functional
Aspergillus fumigatus [18] = test: Antimicrobial activity against itraconazole-susceptible Aspergillus fumigatus clinical isolate expressing cyp51A F46Y, G89G, L358L, E427K, C454C mutant gene by CLSI method; assay type: functional
Aspergillus fumigatus [19] = test: Antimicrobial activity against itraconazole-susceptible Aspergillus fumigatus clinical isolate expressing cyp51A F46Y, M172V, L358L, E427K, C454C mutant gene by CLSI method; assay type: functional
Aspergillus fumigatus [20] = test: Antimicrobial activity against itraconazole-susceptible Aspergillus fumigatus clinical isolate expressing cyp51A F46Y, G89G, M172V, L358L, E427K, C454C mutant gene by CLSI method; assay type: functional
Aspergillus fumigatus [21] = test: Antimicrobial activity against itraconazole-susceptible Aspergillus fumigatus clinical isolate expressing cyp51A F46Y, G89G, M172V, N248T, D255E, E427K mutant gene by CLSI method; assay type: functional
Aspergillus fumigatus [22] = test: Antimicrobial activity against itraconazole-susceptible Aspergillus fumigatus clinical isolate expressing cyp51A F46Y, G89G, M172V, N248T, D255E, L358L, E427K, C454C mutant gene by CLSI method; assay type: functional
Aspergillus fumigatus [23] = test: Antimicrobial activity against itraconazole-susceptible Aspergillus fumigatus clinical isolate expressing cyp51A E130D mutant gene by CLSI method; assay type: functional
Aspergillus fumigatus [24] = test: Antimicrobial activity against itraconazole-susceptible Aspergillus fumigatus clinical isolate expressing cyp51A L252L mutant gene by CLSI method; assay type: functional
Aspergillus fumigatus [25] = test: Antimicrobial activity against itraconazole-susceptible Aspergillus fumigatus clinical isolate expressing cyp51A S400I mutant gene by CLSI method; assay type: functional
Aspergillus fumigatus [26] = test: Antimicrobial activity against itraconazole-susceptible Aspergillus fumigatus clinical isolate expressing wild type cyp51A gene by CLSI method; assay type: functional
Aspergillus fumigatus [27] = test: Antimicrobial activity against itraconazole-resistant Aspergillus fumigatus clinical isolate expressing cyp51A G54E mutant gene by CLSI method; assay type: functional
Aspergillus fumigatus [28] = test: Antimicrobial activity against itraconazole-resistant Aspergillus fumigatus environmental isolate expressing cyp51A L98H, S52T mutant gene by CLSI method
Aspergillus fumigatus [29] = test: Antimicrobial activity against itraconazole-resistant Aspergillus fumigatus environmental isolate expressing cyp51A L98H, Q141H mutant gene by CLSI method
Aspergillus fumigatus [30] = test: Antimicrobial activity against itraconazole-susceptible Aspergillus fumigatus environmental isolate expressing cyp51A F46Y, G89G, M172V, L358L, C454C mutant gene by CLSI method

Row | SMILES | MIC (Aspergillus fumigatus [1]) [µg/mL] | MIC (Aspergillus fumigatus [2]) [µg/mL] | MIC (Aspergillus fumigatus [3]) [µg/mL] | MIC (Aspergillus fumigatus [4]) [µg/mL] | MIC (Aspergillus fumigatus [5]) [µg/mL] | MIC (Aspergillus fumigatus [6]) [µg/mL] | MIC (Aspergillus fumigatus [7]) [µg/mL] | MIC (Aspergillus fumigatus [8]) [µg/mL] | MIC (Aspergillus fumigatus [9]) [µg/mL] | MIC (Aspergillus fumigatus [10]) [µg/mL] | MIC (Aspergillus fumigatus [11]) [µg/mL] | MIC (Aspergillus fumigatus [12]) [µg/mL] | MIC (Aspergillus fumigatus [13]) [µg/mL] | MIC (Aspergillus fumigatus [14]) [µg/mL] | MIC (Aspergillus fumigatus [15]) [µg/mL] | MIC (Aspergillus fumigatus [16]) [µg/mL] | MIC (Aspergillus fumigatus [17]) [µg/mL] | MIC (Aspergillus fumigatus [18]) [µg/mL] | MIC (Aspergillus fumigatus [19]) [µg/mL] | MIC (Aspergillus fumigatus [20]) [µg/mL] | further results
1 | CCC(C)n1ncn(-c2ccc(N3CCN(c4ccc(OCC5COC(Cn6cncn6)(c6ccc(Cl)cc6Cl)O5)cc4)CC3)cc2)c1=O (stereo not given) [ITRACONAZOLE] | > 16 | > 16 | > 16 | > 16 | > 16 | > 16 | > 16 | 16 (≈ 22.7 µM) | > 16 | > 16 | > 16 | > 16 | > 16 | 4 (≈ 5.67 µM) | 8 (≈ 11.3 µM) | 0.125 (≈ 0.177 µM) | 0.25 (≈ 0.354 µM) | 0.25 (≈ 0.354 µM) | 0.125 (≈ 0.177 µM) | 0.125 (≈ 0.177 µM) | MIC (Aspergillus fumigatus [21]): 0.25 µg/mL (≈ 0.354 µM); MIC (Aspergillus fumigatus [22]): 0.25 µg/mL (≈ 0.354 µM); MIC (Aspergillus fumigatus [23]): 0.5 µg/mL (≈ 0.709 µM); MIC (Aspergillus fumigatus [24]): 0.25 µg/mL (≈ 0.354 µM); MIC (Aspergillus fumigatus [25]): 1 µg/mL (≈ 1.42 µM); MIC (Aspergillus fumigatus [26]): 0.125 µg/mL (≈ 0.177 µM); MIC (Aspergillus fumigatus [27]): > 16 µg/mL; MIC (Aspergillus fumigatus [28]): > 16 µg/mL; MIC (Aspergillus fumigatus [29]): > 16 µg/mL; MIC (Aspergillus fumigatus [30]): 0.25 µg/mL (≈ 0.354 µM)
2 | CC[C@@H]([C@H](C)O)n1ncn(-c2ccc(N3CCN(c4ccc(OC[C@@H]5CO[C@@](Cn6cncn6)(c6ccc(F)cc6F)C5)cc4)CC3)cc2)c1=O [POSACONAZOLE] | > 16 | > 16 | 2 (≈ 2.85 µM) | 0.5 (≈ 0.713 µM) | 0.5 (≈ 0.713 µM) | > 16 | 1 (≈ 1.43 µM) | 0.063 (≈ 0.0899 µM) | 0.125 (≈ 0.178 µM) | 0.25 (≈ 0.357 µM) | 0.5 (≈ 0.713 µM) | 0.5 (≈ 0.713 µM) | 1 (≈ 1.43 µM) | 0.25 (≈ 0.357 µM) | 0.125 (≈ 0.178 µM) | 0.016 (≈ 0.0228 µM) | 0.063 (≈ 0.0899 µM) | 0.063 (≈ 0.0899 µM) | 0.063 (≈ 0.0899 µM) | 0.063 (≈ 0.0899 µM) | MIC (Aspergillus fumigatus [21]): 0.063 µg/mL (≈ 0.0899 µM); MIC (Aspergillus fumigatus [22]): 0.063 µg/mL (≈ 0.0899 µM); MIC (Aspergillus fumigatus [23]): 0.125 µg/mL (≈ 0.178 µM); MIC (Aspergillus fumigatus [24]): 0.5 µg/mL (≈ 0.713 µM); MIC (Aspergillus fumigatus [25]): 0.25 µg/mL (≈ 0.357 µM); MIC (Aspergillus fumigatus [26]): 0.031 µg/mL (≈ 0.0442 µM); MIC (Aspergillus fumigatus [27]): 0.25 µg/mL (≈ 0.357 µM); MIC (Aspergillus fumigatus [28]): 0.5 µg/mL (≈ 0.713 µM); MIC (Aspergillus fumigatus [29]): 0.5 µg/mL (≈ 0.713 µM); MIC (Aspergillus fumigatus [30]): 0.125 µg/mL (≈ 0.178 µM)
3 | C[C@@H](c1ncncc1F)[C@](O)(Cn1cncn1)c1ccc(F)cc1F [VORICONAZOLE] | 0.25 (≈ 0.716 µM) | 8 (≈ 22.9 µM) | 2 (≈ 5.73 µM) | 1 (≈ 2.86 µM) | 1 (≈ 2.86 µM) | 2 (≈ 5.73 µM) | > 16 | 1 (≈ 2.86 µM) | 2 (≈ 5.73 µM) | 8 (≈ 22.9 µM) | 8 (≈ 22.9 µM) | 4 (≈ 11.5 µM) | 8 (≈ 22.9 µM) | 2 (≈ 5.73 µM) | 0.25 (≈ 0.716 µM) | 0.5 (≈ 1.43 µM) | 0.25 (≈ 0.716 µM) | 2 (≈ 5.73 µM) | 1 (≈ 2.86 µM) | 0.5 (≈ 1.43 µM) | MIC (Aspergillus fumigatus [21]): 1 µg/mL (≈ 2.86 µM); MIC (Aspergillus fumigatus [22]): 0.25 µg/mL (≈ 0.716 µM); MIC (Aspergillus fumigatus [23]): 0.5 µg/mL (≈ 1.43 µM); MIC (Aspergillus fumigatus [24]): 1 µg/mL (≈ 2.86 µM); MIC (Aspergillus fumigatus [25]): 2 µg/mL (≈ 5.73 µM); MIC (Aspergillus fumigatus [26]): 0.5 µg/mL (≈ 1.43 µM); MIC (Aspergillus fumigatus [27]): 0.25 µg/mL (≈ 0.716 µM); MIC (Aspergillus fumigatus [28]): 4 µg/mL (≈ 11.5 µM); MIC (Aspergillus fumigatus [29]): 4 µg/mL (≈ 11.5 µM); MIC (Aspergillus fumigatus [30]): 1 µg/mL (≈ 2.86 µM)

From ChEMBL document CHEMBL1255497, “Azole resistance profile of amino acid changes in Aspergillus fumigatus CYP51A based on protein homology modeling” (2010)
